Values quoted from earlier work, collected in patent US20050175599A1, “Process for producing substance” (Kyowa Hakko Kogyo Co., Ltd., priority 2001, published 2005).

What was measured:
murine fibroblast cells = conditions: ubiquinone added to media; Protoplasma, 184, 214 (1995); cited from earlier work
bovine embryo cells = conditions: ubiquinone added to media; Biol. Reprod., 61, 541 (1999); cited from earlier work
HeLa cells = conditions: ubiquinone added to media; Protoplasma, 184, 214 (1995); cited from earlier work

Measured: effect on cell growth

COC1=C(OC)C(=O)C(C/C=C(\C)CC/C=C(\C)CC/C=C(\C)CC/C=C(\C)CC/C=C(\C)CC/C=C(\C)CC/C=C(\C)CC/C=C(\C)CC/C=C(\C)CCC=C(C)C)=C(C)C1=O [ubiquinone, 2,3-dimethoxy-5-methyl-6-polyprenyl-1,4-benzoquinone]
promotes the growth: all assays above
